Like-named read-outs stand apart in the source and are kept apart here. Marks after values point to notes of the source that are not given here.
What was measured:
[1] = biological target: T1, hA1AR (Homo sapiens (Human), UniProt P30542); test: Radioligand membrane binding at hA1AR (Example 6)
Experimental: (§1) In addition, 800 μg/mL Geneticin and 500 μg/mL hygromycin were added to the A2A media and to the A1 and A3 media, respectively. […] The concentration of protein was determined using a BCA Protein Assay Kit from Pierce Biotechnology (Rockford, Ill.).
(§2) Radioligand binding assays at A1, A2A, and A3ARs were performed according to the procedures described previously.
(§3) All of the filters were washed 3 times with Tris-HCl, pH 7.5. […] Filters for A3AR binding were counted using a PerkinElmer Cobra II γ-counter.
(§4) Binding and functional parameters were calculated using Prism 5.0 software (GraphPAD, San Diego, Calif., USA). IC50 values obtained from competition curves were converted to Ki values using the Cheng-Prusoff equation. Data were expressed as mean±standard error.

[2] = biological target: T2, hA2AAR (Homo sapiens (Human), UniProt P29274); test: Radioligand membrane binding at hA2AAR (Example 6); conditions: HEK293 cells expressing hA2AAR; [3H]CGS21680; n = 3-5; read-out: Affinity Ki, nM A2A
T2 sequence (P29274 whole entry): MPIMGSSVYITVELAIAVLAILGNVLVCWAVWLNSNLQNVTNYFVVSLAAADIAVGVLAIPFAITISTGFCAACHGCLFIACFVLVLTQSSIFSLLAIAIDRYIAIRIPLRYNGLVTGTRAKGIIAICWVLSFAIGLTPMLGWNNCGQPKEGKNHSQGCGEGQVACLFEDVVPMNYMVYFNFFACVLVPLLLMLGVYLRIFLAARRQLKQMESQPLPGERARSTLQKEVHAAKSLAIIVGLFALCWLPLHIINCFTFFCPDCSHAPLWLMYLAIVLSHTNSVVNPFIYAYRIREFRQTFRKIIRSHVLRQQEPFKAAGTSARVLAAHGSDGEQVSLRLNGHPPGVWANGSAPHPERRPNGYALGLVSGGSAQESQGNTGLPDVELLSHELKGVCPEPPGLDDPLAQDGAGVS
Experimental: as §1, §2, §3, §4

[3] = biological target: T1, hA1AR; test: A1AR functional assay, inhibition of forskolin-stimulated cyclic AMP production in AR-transfected CHO cells; assay type: cell-based; conditions: FIG. 12, compared to full agonist NECA
[4] = tested on: seizures induced by 6 Hz corneal stimulation in mice; test: 6 Hz minimal clonic seizure test; assay type: in vivo
Experimental: (§5) For the MES and 6 Hz tests, a drop of anesthetic/electrolyte solution (0.5% tetracaine hydrochloride in 0.9% saline) was applied to the eyes of each animal prior to placement of the corneal electrodes. The electrical stimulus in the MES test was 50 mA, 60 Hz, for mice. Abolition of the hindleg tonic extensor component of the seizure was used as the endpoint.
The ability of the test substance to prevent seizures induced by 6 Hz corneal stimulation (32 mA, 3 sec duration) in mice was evaluated at a convulsive current that evokes a seizure in 97% of the population tested (CC97). Six Hz seizures are characterized by a minimal clonic phase that is followed by stereotyped, automatistic behaviors described originally as being similar to the aura of human patients with partial seizures. Toman, J. E. et al., Tex. Rep.
Animals not displaying this behavior were considered protected.

[5] = tested on: MES seizures in mice; test: Maximal electroshock (MES) seizure test; assay type: in vivo; conditions: i.p.
Experimental: The electrical tests used were the maximal electroshock (MES) seizure test, the 6 Hz minimal clonic seizure test, and the corneal kindled mouse test. The chemical test was the s.c. metrazol seizure tests. Time of peak effect (TPE) is deduced from data generated in initial qualitative test procedures. Five groups of 4 animals each are administered the test compound, and each group is tested at one of five different time intervals: ¼, ½, 1, 2 and 4 h. The time point at which the compound produces the most activity/toxicity was chosen as TPE.
as §5

[6] = tested on: s.c. metrazol seizures in mice; test: s.c. metrazol (scMET) seizure test; assay type: in vivo; conditions: i.p.
Text: In vivo anticonvulsant activity was established by both electrical and chemoconvulsant seizure tests which have been described previously. White, H. S., et al., Ital. J. Neurol. […] White, H. S. et al., Antiepileptic Drugs ([…].; Meldrum, B. S. ed), 1995, pp 99-110, Raven Press, New York.; and Smith, M., et al., Neurotherapeutics 2007, 4, 12-17. The electrical tests used were the maximal electroshock (MES) seizure test, the 6 Hz minimal clonic seizure test, and the corneal kindled mouse test. The chemical test was the s.c. metrazol seizure tests. Time of peak effect (TPE) is deduced from data generated in initial qualitative test procedures. […] The time point at which the compound produces the most activity/toxicity was chosen as TPE.

[7] = tested on: corneal kindled mice; test: Corneal-kindled mouse model of partial seizures; assay type: in vivo; conditions: qualitative test, 3 mg/kg, 1 hour post injection, n=4
Text: Mice were kindled according to the methods described by […] and […]; […] Louis, Mo.) was applied to the cornea to ensure local anesthesia and good electrical conductivity. Stimulations were at least four hours apart. […] See Racine, R., Electroencephalogr. Clin. Neurophysiol. 1972, pp. 281-294. At the completion of the kindling acquisition, mice were permitted at least a 3-day stimulation-free period prior to any drug testing. Mice were stimulated once the day before drug testing to ensure they had achieved and maintained a kindled state. On the day of the drug study, corneal kindled mice (n=4, or 8) received a single i.p. dose of test compound. Mice were challenged with the corneal kindling stimulus of 3 mA for 3 seconds at TPE after test compound administration. Mice were scored as protected (seizure score of ≦3) or not protected, (seizure score ≧4) based on the Racine scoring.

[8] = in vivo; conditions: mouse, ip
[9] = tested on: mice; test: Minimal behavioral toxicity test, rotorod procedure; conditions: i.p.
[10] = biological target: human A3 receptor (Homo sapiens (Human), UniProt P0DMS8); test: Binding assay at the human A3 receptor (Example 2); conditions: CHO cells expressing human A3AR; radioligand [125I]I-AB-MECA; n = 3-5; read-out: Affinity (Ki, nM) A3
Chain of human A3 receptor (P0DMS8 whole entry): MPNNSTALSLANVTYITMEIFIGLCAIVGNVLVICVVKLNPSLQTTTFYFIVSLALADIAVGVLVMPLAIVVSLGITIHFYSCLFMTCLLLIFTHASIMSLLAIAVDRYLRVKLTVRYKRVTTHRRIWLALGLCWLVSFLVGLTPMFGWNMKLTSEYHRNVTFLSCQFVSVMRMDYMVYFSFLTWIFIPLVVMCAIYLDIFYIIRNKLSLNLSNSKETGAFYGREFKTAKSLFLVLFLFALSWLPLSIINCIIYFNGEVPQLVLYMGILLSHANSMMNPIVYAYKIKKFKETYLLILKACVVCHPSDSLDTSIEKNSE

[11] = biological target: T3, human A3AR (Homo sapiens (Human), UniProt P0DMS8); test: [35S]GTPγS binding assay, membranes of CHO cells expressing human A3AR; assay type: biochemical
T3 sequence (P0DMS8 whole entry): as above

[12] = biological target: T3, human A3AR; test: Cyclic AMP accumulation / adenylate cyclase assay, CHO cells expressing hA3AR; assay type: cell-based
[13] = biological target: T1, hA1AR; conditions: values from literature references; read-out: Affinity Ki, nM A1; cited from earlier work
[14] = biological target: T2, hA2AAR; conditions: values from literature references; read-out: Affinity Ki, nM A2A; cited from earlier work
[15] = biological target: hA3AR (Homo sapiens (Human), UniProt P0DMS8); conditions: values from literature references; read-out: Affinity Ki, nM A3; cited from earlier work
Chain of hA3AR (P0DMS8 whole entry): as above

T1 sequence (P30542 whole entry): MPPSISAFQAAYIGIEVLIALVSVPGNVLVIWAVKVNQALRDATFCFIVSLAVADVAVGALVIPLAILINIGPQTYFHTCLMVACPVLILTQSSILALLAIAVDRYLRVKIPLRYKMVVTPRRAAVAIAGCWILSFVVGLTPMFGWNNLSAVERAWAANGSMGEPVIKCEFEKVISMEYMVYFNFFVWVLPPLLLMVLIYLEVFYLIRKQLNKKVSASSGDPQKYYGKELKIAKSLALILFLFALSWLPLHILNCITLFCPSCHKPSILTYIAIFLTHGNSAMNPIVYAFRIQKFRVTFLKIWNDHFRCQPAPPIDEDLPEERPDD

O[C@@H]1[C@H](O)[C@@H]2C[C@@H]2[C@H]1n1cnc2c(NC(C3CC3)C3CC3)nc(Cl)nc21 [Compound 121, (1R,2R,3S,4R,5S)-4-(2-Chloro-6-(dicyclopropylmethylamino)-9H-purin-9-yl)bicyclo[3.1.0]hexane-2,3-diol]
times less potent at the A1AR in in vitro binding compared to 235b [1]: ~40 times | Ki ([1]; CHO cells expressing hA1AR, [3H]R-PIA, n = 3-5, read-out: Affinity Ki, nM A1): 47.9 ± 10.5 nM | Ki [2]: 3950 ± 410 nM | agonist character at A1 AR, concentration-response curve of inhibition of cyclic AMP production [3]: full agonist | ED50 ([4]; Mus musculus, ip, mice, i.p., measured at 1 h post injection, read-out: 6 Hz model ED50): 2.74 mg/kg | ED50 in antiseizure models, times less potent compared to 235b ([4]; mouse, in vivo): about 20 times | MES model, number of animals protected from convulsions ([5]; 3 mg/kg): 1 out of 4 | scMET model, number of animals protected from convulsions ([6]; 3 mg/kg): No protection | corneal kindled mouse model, animals protected [7]: all animals (n=4) were protected | TD50 [8]: > 10 mg/kg | Behavioral toxicity TD50 [9]: >10 mg/kg

O[C@@H]1[C@H](O)[C@@H]2C[C@@H]2[C@H]1n1cnc2c(NCc3cccc(I)c3)nc(Cl)nc21 [Compound 7b, (1′R,2′R,3′S,4′R,5′S)-4′-[2-Chloro-6-(3-iodobenzylamino)purine]-2′,3′-O-dihydroxybicyclo-[3.1.0]hexane]
Ki [10]: 1.44 ± 0.6 nM | IC50 ([11]; read-out: IC50, inhibition of [35S]GTPγS binding stimulated by NECA, stimulation by 1 μM NECA): 29.8 nM | % Efficacy A3 ([11]; stimulation measured by [35S]GTPγS binding assay): 1.0 ± 3.2% | EC50 ([12]; partial agonism, read-out: EC50 at A3AR, cAMP assay): 12 ± 1 nM | Kb ([12]; right shifts of response curves in the inhibition of adenylate cyclase by NECA, read-out: KB value, Schild analysis): 8.9 nM

NCCNC(=O)Cc1ccc(NC(=O)Cc2ccc(Nc3ncnc4c3ncn4[C@@H]3O[C@H](CO)[C@@H](O)[C@H]3O)cc2)cc1 [Compound 237]
6 Hz model ED50 ([4]; mice, i.p., measured at 1 h post injection): 0.03^c mg/kg | MES model, number of animals protected from convulsions ([5]; 2 mg/kg): 4 out of 8 | scMET model, number of animals protected from convulsions ([6]; 1 mg/kg): 5 out of 8 | Ki [13]: 10.4 ± 3.8 nM | Ki [14]: 370 ± 100 nM | Ki [15]: 12.4 ± 4.1 nM | Behavioral toxicity TD50 ([9]; measured at 4 h post injection): 0.14^d mg/kg

From patent publication US9181253B2 (The United States of America, as represented by the …, priority 2008, dated 2015)
